Assay results as given in patent US11149316B2, “Methods for detecting inactivation of the homologous recombination pathway (BRCA1/2) in human tumors” (INSTITUT CURIE, priority 2013, dated 2021).

System: triple-negative breast tumors
Assay: Cisplatin treatment of patients with triple-negative breast tumors, response by Miller-Payne score (GSE28330; Cisplatin-1 and Cisplatin-2 trials)
Type: in vivo, human
Procedure: Two publically available data sets from clinical trial of Cisplatin treatment of patients with triple-negative breast tumors [GSE28330 GEO database][59] were processed and the number of LST_10 Mb was calculated for each tumor with good quality of measured profile. Genomic profiles were measured by two types of chip: Affymetrix Oncoscan 70K (Dataset 2) and Oncoscan 300K (Dataset 1). Information about mutational status of BRCA1/2 was available for some tumors. Response to treatment was measured by Miller-Payne score, where 4 and 5 were considered as “positive response”, while scores <4 were considered as “no response” [59] Case by case and summary results are presented in Table 2 and Tables 3-5 (statistical comparisons were performed by the Fisher exact test).
(i) TCGA cohort: 467 tumors with high quality SNP-array profile and available normal/tumor exome sequencing results in variant call format (vcf) from the TCGA Breast Invasive carcinoma dataset were used. (ii) In-house TNBC cohort: a series of 104 TNBC enriched in BRCAi germline mutated cased. (iii) the publically available data from Cisplatin-1 and Cisplatin-2 clinical trials cohorts: 54 TNBCs with suitable quality of Oncoscan (Affymetrix) array profile were obtained from public GEO repository GSE28330 (66).
HRD is linked to the response to platinum based chemotherapy. Birkbak et al. analyzed SNParray profiles from a series of 79 patients with TNBC, including 28 patients treated by cisplatin prior to surgery (Cisplatin-1 trial) and 51 patients treated with cisplatin in addition to bevacizumab (Cisplatin-2 trial) (59).

SMILES: N.N.[Cl][Pt][Cl] [Cisplatin, cisplatin]
- Non Responders (number of tumors) (BRCA1/2 inactivated tumors): 8
- Responders (number of tumors) (BRCA1/2 inactivated tumors): 9
- Miller Payne Response Score 4 (CR), number of tumors (LST^hi tumors): 7
- Miller Payne Response Score 5 (pCR), number of tumors (LST^hi tumors): 11
- Miller Payne Response Score 4 (CR), number of tumors (LST^lo tumors): 1
- Miller Payne Response Score 5 (pCR), number of tumors (LST^lo tumors): 0
- Non Responders (Miller-Payne 0-3), number of tumors (LST_high tumors): 15
- Responders (Miller-Payne 4-5), number of tumors (LST_high tumors): 18
- Responders (Miller-Payne 4-5), number of tumors (LST_high tumors, listed as cisplatin): 18/33
- Non Responders (Miller-Payne 0-3), number of tumors (LST_low tumors): 20
- Responders (Miller-Payne 4-5), number of tumors (LST_low tumors): 1
- Responders (Miller-Payne 4-5), number of tumors (LST_low tumors, listed as cisplatin): 1/21
- Non Responders (number of tumors) (NON BRCA1/2 or NA tumors): 27
- Responders (number of tumors) (NON BRCA1/2 or NA tumors): 10
